Measured values: PMC7010297, “How the initiating ribosome copes with ppGpp to translate mRNAs” (PLoS Biology, 2020)
Several values for one entry are separate records, joined by “and”; a condition that tells them apart may be missing. Equal entries are not always repeated.

What was measured:
IF2-bound 30S IC = target: T1, IF2-bound 30S IC (Escherichia coli, UniProt P0A705); assay: 30S IC formation by MST, guanosine nucleotide titration; format: binding; conditions: for MST Average / MST Replicates (a.u.): Fig 2B;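 for MST Average: lower thermophoresis signal means Bpy-tRNAi dissociation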;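 for MST Replicates (a.u.): lower thermophoresis signal means Bpy-tRNAi dissociation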
T1 construct: 6xHis (N); made in house
T1 sequence (P0A705 whole entry, looked up): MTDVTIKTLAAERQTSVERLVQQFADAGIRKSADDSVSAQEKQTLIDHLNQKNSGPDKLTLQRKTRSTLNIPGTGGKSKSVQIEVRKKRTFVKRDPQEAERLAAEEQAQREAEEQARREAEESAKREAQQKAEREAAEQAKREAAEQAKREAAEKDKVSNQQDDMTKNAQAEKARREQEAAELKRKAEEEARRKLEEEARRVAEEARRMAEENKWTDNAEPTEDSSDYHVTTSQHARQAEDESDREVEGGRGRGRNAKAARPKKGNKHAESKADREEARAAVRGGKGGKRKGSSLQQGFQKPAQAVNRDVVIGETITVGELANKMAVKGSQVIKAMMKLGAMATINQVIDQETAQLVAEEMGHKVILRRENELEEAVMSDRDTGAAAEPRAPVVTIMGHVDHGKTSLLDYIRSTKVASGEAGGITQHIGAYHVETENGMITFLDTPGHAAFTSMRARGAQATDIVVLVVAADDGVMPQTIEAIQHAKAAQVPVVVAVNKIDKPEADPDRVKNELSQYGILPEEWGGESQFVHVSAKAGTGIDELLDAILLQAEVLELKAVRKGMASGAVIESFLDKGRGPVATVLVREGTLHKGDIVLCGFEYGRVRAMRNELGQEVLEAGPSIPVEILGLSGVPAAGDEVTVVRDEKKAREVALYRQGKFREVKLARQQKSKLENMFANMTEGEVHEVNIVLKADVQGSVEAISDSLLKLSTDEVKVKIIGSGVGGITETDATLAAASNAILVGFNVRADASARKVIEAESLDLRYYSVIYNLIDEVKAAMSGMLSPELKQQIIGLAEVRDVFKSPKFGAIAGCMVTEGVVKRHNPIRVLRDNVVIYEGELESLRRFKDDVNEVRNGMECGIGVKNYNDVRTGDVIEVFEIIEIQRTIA
From the text: (§1) To monitor the interaction of initiator tRNA and 30S ribosomal subunits, we used Microscale Thermophoresis (MST) with a fluorescently labelled initiator tRNA (Bpy-tRNAi) (Fig 1B). MST allows to measure fluorescence in a constrained space. Changes on the readout derive from molecular drifts resulting from small thermal equilibrium perturbations. Upon equilibrium perturbations, the patterns of Bpy-tRNAi migration away from the observation space are related to bound and unbound states (Fig 1B). […] On the contrary, a decrease in thermophoresis indicated the dissociation of Bpy-tRNAi. The relation between fluorescence measured at both equilibriums (Ff to Fi, after and prior to the perturbation, respectively) as a function of ligand concentration allowed to determine dissociation constants of the interaction (Fig 1C).
(§2) Continuous lines indicate nonlinear regression fittings with a quadratic equation. Three measurements were performed; mean and standard deviation are plotted (S1 Data). (B) as (A) to measure the concentration dependence for each tested guanosine nucleotide at constant IF2 (1 μM). […] Continuous lines show best fits using exponential functions. (D) Formation of 70S IC as measured by Bpy-tRNAi accommodation in the P site of the ribosome; 0.1 μM 30S ICs were formed with Bpy-tRNAi and rapidly mixed with 0.3 μM 50S subunits on a stopped-flow apparatus as described in [14]. Colors are as in (C). Continuous lines show best fits using an exponential function for a single reaction step. Each stopped-flow trace results from the mean of 5 to 7 replicates.
MST was calculated from the respective fluorescence time dependencies (S3 Fig). […] Symbols as in (B). […] Continuous lines indicate nonlinear regression fittings with quadratic (B and E) or same-site competition (G) functions. Three measurements were performed; mean and standard deviations are plotted (S1 Data).

[1] = target: T2, 70S pre-IC (50S joining to 30S IC) (Escherichia coli, UniProt P0A705); assay: 70S pre-IC formation by light scattering, stopped-flow; format: biochemical; conditions: 30S complexes formed with 0.2 mM nucleotide, mixed with 50S subunits
T2 construct: 6xHis (N); made in house
T2 sequence (P0A705 whole entry, looked up): as above
Description: as §2
(§3) (A) Scheme of 70S IC formation. […] Time traces were analyzed by nonlinear regression with exponential terms. […] Formation of 70S IC, as measured by Bpy-tRNAi accommodation in the absence (F) or presence of 200 μM ppGpp (G). Time traces were analyzed by nonlinear regression with one exponential term. […] Continuous lines show best fits using an exponential function for a single reaction step. All time traces are mean values of 5 to 10 replicates. Bar graphs show mean and standard errors (error bars) derived from the nonlinear regression fitting (D,E,H,I) (S1 Data).
(§4) To measure 70S pre-IC formation, a SX-20 stopped-flow instrument (Applied Photophysics, Leatherhead, UK) was set up for LS recording with an excitation wavelength of 430 nm. Scattered light was measured at an angle of 90° without a filter. Pseudo first-order conditions were approximated by using ≥3-fold excess of 50S subunits over 30S ICs; 0.2 μM 30S ICs were rapidly mixed in the instrument with 0.6 μM 50S at 25 °C. Bpy-tRNAi accommodation was measured essentially as described elsewhere. Briefly, 0.2 μM 30S ICs were formed using Bpy-tRNAi and rapidly mixed with 0.6 μM 50S at 25 °C. Fluorescence was excited at 470 nm and measured after a 495-nm longpass filter. Individual traces (6–11 traces) were averaged, and the resulting kinetic curve was approximated by single (F = A0 + A1*exp (-kapp1*t)) or double (F = A0 + A1*exp (-kapp1*t) + A2*exp (-kapp2*t)) exponential fit using Graphpad Prism 6.0 software (GraphPad, San Diego, California).

[2] = target: T3, 30S IC (30S-bound IF2, Bpy-tRNAi) (Escherichia coli, UniProt P0A705); assay: 30S IC formation measured by MST at increasing concentrations of IF2 with guanosine nucleotides; format: binding; conditions: Fig 2A
T3 construct: 6xHis (N); made in house
T3 sequence (P0A705 whole entry, looked up): as above
From the text: as §1, §2

70S IC = target: T4, 70S IC (Escherichia coli, UniProt P0A705); assay: 70S IC formation by Bpy-tRNAi accommodation, stopped-flow; format: biochemical
T4 construct: 6xHis (N); made in house
T4 sequence (P0A705 whole entry, looked up): as above
Description: as §2, §3, §4

## Nc1nc2c(ncn2[C@@H]2O[C@H](COP(=O)(O)OP(=O)(O)OP(=O)(O)O)[C@@H](OP(=O)(O)OP(=O)(O)O)[C@H]2O)c(=O)[nH]1 [pppGpp]
IF2-bound 30S IC; nucleotide 0.005 µM
  MST Average: 927.64 a.u.
IF2-bound 30S IC; nucleotide 0.005 µM, constant IF2 (1 μM)
  MST Replicates (a.u.): 925.66 a.u. and 928.15 a.u. and 929.12 a.u.
IF2-bound 30S IC; nucleotide 0.01 µM
  MST Average: 929.62 a.u.
  MST Replicates (a.u.): 928.28 a.u. and 930.44 a.u. and 930.13 a.u.
IF2-bound 30S IC; nucleotide 0.02 µM
  MST Average: 931.44 a.u.
  MST Replicates (a.u.): 929.17 a.u. and 931.64 a.u. and 933.52 a.u.
IF2-bound 30S IC; nucleotide 0.04 µM
  MST Average: 936.26 a.u.
  MST Replicates (a.u.): 935.68 a.u. and 936.43 a.u. and 936.67 a.u.
IF2-bound 30S IC; nucleotide 0.08 µM
  MST Average: 942.88 a.u.
  MST Replicates (a.u.): 942.08 a.u. and 943.53 a.u. and 943.02 a.u.
IF2-bound 30S IC; nucleotide 0.16 µM
  MST Average: 950.27 a.u.
  MST Replicates (a.u.): 947.31 a.u. and 952.19 a.u. and 951.31 a.u.
IF2-bound 30S IC; nucleotide 0.31 µM
  MST Average: 960.78 a.u.
  MST Replicates (a.u.): 960.77 a.u. and 960.89 a.u. and 960.69 a.u.
IF2-bound 30S IC; nucleotide 0.63 µM
  MST Average: 981.69 a.u.
  MST Replicates (a.u.): 982.02 a.u. and 981.68 a.u. and 981.38 a.u.
IF2-bound 30S IC; nucleotide 1.25 µM
  MST Average: 1004.44 a.u.
  MST Replicates (a.u.): 1006.47 a.u. and 1004.17 a.u. and 1002.69 a.u.
IF2-bound 30S IC; nucleotide 2.50 µM
  MST Average: 1012.89 a.u.
  MST Replicates (a.u.): 1008.41 a.u. and 1015.77 a.u. and 1014.48 a.u.
IF2-bound 30S IC; nucleotide 5.00 µM
  MST Average: 1025.14 a.u.
  MST Replicates (a.u.): 1023.12 a.u. and 1027.23 a.u. and 1025.07 a.u.
IF2-bound 30S IC; nucleotide 10.00 µM
  MST Average: 1030.92 a.u.
  MST Replicates (a.u.): 1031.01 a.u. and 1031.12 a.u. and 1030.63 a.u.
IF2-bound 30S IC; nucleotide 20.00 µM
  MST Average: 1013.38 a.u.
  MST Replicates (a.u.): 1013.59 a.u. and 1013.77 a.u. and 1012.79 a.u.
IF2-bound 30S IC; nucleotide titration at constant IF2 (1 μM), read-out: KD for the IF2-bound 30S IC
  Kd: 500 ± 100 nM
[1]
  kapp of 70S pre-IC formation (LS): 2.9 ± 0.3 s^–1
[2]; IF2 0.16 µM
  MST Average: 944.96 a.u.
[2]; IF2 0.16 µM, in the presence of the nucleotide
  MST Replicates (a.u.): 945.84 a.u. (2×) and 943.18 a.u.
[2]; IF2 0.31 µM
  MST Average: 951.85 a.u.
  MST Replicates (a.u.): 948.28 a.u. and 951.55 a.u. and 955.73 a.u.
[2]; IF2 0.63 µM
  MST Average: 965.81 a.u.
  MST Replicates (a.u.): 963.82 a.u. and 965.27 a.u. and 968.34 a.u.
[2]; IF2 1.25 µM
  MST Average: 989.55 a.u.
  MST Replicates (a.u.): 985.24 a.u. and 988.50 a.u. and 994.92 a.u.
[2]; IF2 2.50 µM
  MST Average: 1020.82 a.u.
  MST Replicates (a.u.): 1014.01 a.u. and 1021.45 a.u. and 1027.00 a.u.
[2]; IF2 5.00 µM
  MST Average: 1015.83 a.u.
  MST Replicates (a.u.): 1011.56 a.u. and 1015.17 a.u. and 1020.77 a.u.
70S IC; 30S ICs formed with 0.2 mM nucleotide, mixed with 50S subunits
  kapp of Bpy-tRNAi accommodation (70S IC formation): 1.2 ± 0.2 s^–1
70S IC; compared to GTP-bound IF2
  Bpy-tRNAi accommodation slower than with GTP: 2 fold
